Target: human capsaicin receptor (VR1) (Homo sapiens, UniProt Q8NER1)
Test: Capsaicin receptor binding assay ([3H]RTX competition, VR1-transfected HEK293 membranes)

human capsaicin receptor (VR1), sequence (Q8NER1 whole entry): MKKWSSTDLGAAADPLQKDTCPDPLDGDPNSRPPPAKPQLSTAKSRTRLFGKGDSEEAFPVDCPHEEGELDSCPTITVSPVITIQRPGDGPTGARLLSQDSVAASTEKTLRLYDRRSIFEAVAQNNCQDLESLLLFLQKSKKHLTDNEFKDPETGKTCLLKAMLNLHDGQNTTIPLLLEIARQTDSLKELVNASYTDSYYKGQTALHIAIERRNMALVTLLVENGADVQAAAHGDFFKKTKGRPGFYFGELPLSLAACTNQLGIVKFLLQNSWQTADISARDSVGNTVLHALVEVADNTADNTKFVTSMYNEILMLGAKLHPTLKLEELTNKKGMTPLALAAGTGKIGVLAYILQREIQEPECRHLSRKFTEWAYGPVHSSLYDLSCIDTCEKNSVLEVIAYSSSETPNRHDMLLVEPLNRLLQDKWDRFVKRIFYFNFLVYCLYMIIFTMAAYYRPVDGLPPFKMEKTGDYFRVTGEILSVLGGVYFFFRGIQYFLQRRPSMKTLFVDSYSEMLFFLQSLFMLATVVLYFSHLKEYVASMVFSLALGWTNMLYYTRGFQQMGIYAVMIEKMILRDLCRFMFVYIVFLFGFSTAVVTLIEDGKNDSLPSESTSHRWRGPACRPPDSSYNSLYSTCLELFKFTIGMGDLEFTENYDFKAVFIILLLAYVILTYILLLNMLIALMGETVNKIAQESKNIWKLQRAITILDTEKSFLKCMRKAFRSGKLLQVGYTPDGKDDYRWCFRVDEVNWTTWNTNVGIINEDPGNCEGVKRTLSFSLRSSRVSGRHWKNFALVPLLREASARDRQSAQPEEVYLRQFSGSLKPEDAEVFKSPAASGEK

SMILES | Ki [µM]
CCOc1ccc(Nc2nc(COCC(C)C)nc3nc(-c4ncccc4C(F)(F)F)ccc23)cc1 [Compound 251, (4-Ethoxy-phenyl)-[2-isobutoxymethyl-7-(3-trifluoromethyl-pyridin-2-yl)-pyrido[2,3-d]pyrimidin-4-yl]-amine] | < 1
CC(C)COCc1nc(Nc2ccc(F)c(F)c2)c2ccc(-c3ncccc3C(F)(F)F)nc2n1 [Compound 252, (3,4-Difluoro-phenyl)-[2-isobutoxymethyl-7-(3-trifluoromethyl-pyridin-2-yl)-pyrido[2,3-d]pyrimidin-4-yl]-amine] | < 1
Cc1cc(Nc2nc(COCC(C)C)nc3nc(-c4ncccc4C(F)(F)F)ccc23)ccc1F [Compound 253, (4-Fluoro-3-methyl-phenyl)-[2-isobutoxymethyl-7-(3-trifluoromethyl-pyridin-2-yl)-pyrido[2,3-d]pyrimidin-4-yl]-amine] | < 1
CC(C)COCc1nc(Nc2ccc(F)c(C(F)(F)F)c2)c2ccc(-c3ncccc3C(F)(F)F)nc2n1 [Compound 254, (4-Fluoro-3-trifluoromethyl-phenyl)-[2-isobutoxymethyl-7-(3-trifluoromethyl-pyridin-2-yl)-pyrido[2,3-d]pyrimidin-4-yl]-amine] | < 1
CC(C)COCc1nc(Nc2ccc(Cl)c(C(F)(F)F)c2)c2ccc(-c3ncccc3C(F)(F)F)nc2n1 [Compound 255, (4-Chloro-3-trifluoromethyl-phenyl)-[2-isobutoxymethyl-7-(3-trifluoromethyl-pyridin-2-yl)-pyrido[2,3-d]pyrimidin-4-yl]-amine] | < 1
COc1ccc(Nc2nc(COCC(C)C)nc3nc(-c4ncccc4C(F)(F)F)ccc23)cc1C(F)(F)F [Compound 256, [2-Isobutoxymethyl-7-(3-trifluoromethyl-pyridin-2-yl)-pyrido[2,3-d]pyrimidin-4-yl]-(4-methoxy-3-trifluoromethyl-phenyl)-amine] | < 1
Cc1ccc(Nc2nc(COCC(C)C)nc3nc(-c4ncccc4C(F)(F)F)ccc23)cc1C [Compound 257, (3,4-Dimethyl-phenyl)-[2-isobutoxymethyl-7-(3-trifluoromethyl-pyridin-2-yl)-pyrido[2,3-d]pyrimidin-4-yl]-amine] | < 1
COc1ccc(Nc2nc(COCC(C)C)nc3nc(-c4ncccc4C(F)(F)F)ccc23)cc1F [Compound 258, (3-Fluoro-4-methoxy-phenyl)-[2-isobutoxymethyl-7-(3-trifluoromethyl-pyridin-2-yl)-pyrido[2,3-d]pyrimidin-4-yl]-amine] | < 1
CC(C)COCc1nc(Nc2ccc(F)cc2)c2ccc(-c3ncccc3Cl)nc2n1 [Compound 259, [7-(3-Chloro-pyridin-2-yl)-2-isobutoxymethyl-pyrido[2,3-d]pyrimidin-4-yl]-(4-fluoro-phenyl)-amine] | < 1
CC(C)COCc1nc(Nc2ccc(Cl)cc2)c2ccc(-c3ncccc3Cl)nc2n1 [Compound 260, (4-Chloro-phenyl)-[7-(3-chloro-pyridin-2-yl)-2-isobutoxymethyl-pyrido[2,3-d]pyrimidin-4-yl]-amine] | < 1
CC(C)COCc1nc(Nc2ccc(C#N)cc2)c2ccc(-c3ncccc3Cl)nc2n1 [Compound 261, 4-[7-(3-Chloro-pyridin-2-yl)-2-isobutoxymethyl-pyrido[2,3-d]pyrimidin-4-ylamino]-benzonitrile] | < 1
CC(=O)c1ccc(Nc2nc(COCC(C)C)nc3nc(-c4ncccc4Cl)ccc23)cc1 [Compound 262, 1-{4-[7-(3-Chloro-pyridin-2-yl)-2-isobutoxymethyl-pyrido(2,3-d]pyrimidin-4-ylamino]-phenyl}-ethanone] | < 1
CC(C)COCc1nc(Nc2ccc(N3CCOCC3)cc2)c2ccc(-c3ncccc3Cl)nc2n1 [Compound 263, [7-(3-Chloro-pyridin-2-yl)-2-isobutoxymethyl-pyrido[2,3-d]pyrimidin-4-yl]-(4-morpholin-4-yl-phenyl)-amine] | < 1
CCOc1ccc(Nc2nc(COCC(C)C)nc3nc(-c4ncccc4Cl)ccc23)cc1 [Compound 264, [7-(3-Chloro-pyridin-2-yl)-2-isobutoxymethyl-pyrido[2,3-d]pyrimidin-4-yl]-(4-ethoxy-phenyl)-amine] | < 1
CCc1ccc(Nc2nc(COCC(C)C)nc3nc(-c4ncccc4Cl)ccc23)cc1 [Compound 265, [7-(3-Chloro-pyridin-2-yl)-2-isobutoxymethyl-pyrido[2,3-d]pyrimidin-4-yl]-(4-ethyl-phenyl)-amine] | < 1
CCCc1ccc(Nc2nc(COCC(C)C)nc3nc(-c4ncccc4Cl)ccc23)cc1 [Compound 266, [7-(3-Chloro-pyridin-2-yl)-2-isobutoxymethyl-pyrido[2,3-d]pyrimidin-4-yl]-(4-propyl-phenyl)-amine] | < 1
COC(=O)c1ccc(Nc2nc(COCC(C)C)nc3nc(-c4ncccc4Cl)ccc23)cc1 [Compound 267, 4-[7-(3-Chloro-pyridin-2-yl)-2-isobutoxymethyl-pyrido[2,3-d]pyrimidin-4-ylamino]-benzoic acid methyl ester] | < 1

SMILES | Ki [µM]
CC(C)COCc1nc(Nc2ccc(F)c(F)c2)c2ccc(-c3ncccc3Cl)nc2n1 [Compound 268, [7-(3-Chloro-pyridin-2-yl)-2-isobutoxymethyl-pyrido[2,3-d]pyrimidin-4-yl]-(3,4-difluoro-phenyl)-amine] | < 1
Cc1cc(Nc2nc(COCC(C)C)nc3nc(-c4ncccc4Cl)ccc23)ccc1F [Compound 269, [7-(3-Chloro-pyridin-2-yl)-2-isobutoxymethyl-pyrido[2,3-d]pyrimidin-4-yl]-(4-fluoro-3-methyl-phenyl)-amine] | < 1
CC(C)COCc1nc(Nc2cccc(C(F)(F)F)c2)c2ccc(-c3ncccc3C(F)(F)F)nc2n1 [Compound 270, [2-Isobutoxymethyl-7-(3-trifluoromethyl-pyridin-2-yl)-pyrido[2,3-d]pyrimidin-4-yl]-(3-trifluoromethyl-phenyl)-amine] | < 1
CC(C)COCc1nc(Nc2cccc(Cl)c2)c2ccc(-c3ncccc3C(F)(F)F)nc2n1 [Compound 271, (3-Chloro-phenyl)-[2-isobutoxymethyl-7-(3-trifluoromethyl-pyridin-2-yl)-pyrido[2,3-d]pyrimidin-4-yl]-amine] | < 1
CC(C)COCc1nc(Nc2ccc(C#N)cc2)c2ccc(-c3ncccc3C(F)(F)F)nc2n1 [Compound 272, 4-[2-Isobutoxymethyl-7-(3-trifluoromethyl-pyridin-2-yl)-pyrido[2,3-d]pyrimidin-4-ylamino]-benzonitrile] | < 1
CC(C)COCc1nc(Nc2ccc(Cl)c(F)c2)c2ccc(-c3ncccc3C(F)(F)F)nc2n1 [Compound 273, (4-Chloro-3-fluoro-phenyl)-[2-isobutoxymethyl-7-(3-trifluoromethyl-pyridin-2-yl)-pyrido[2,3-d]pyrimidin-4-yl]-amine] | < 1
Cc1cc(Nc2nc(COCC(C)C)nc3nc(-c4ncccc4C(F)(F)F)ccc23)ccc1Cl [Compound 274, (4-Chloro-3-methyl-phenyl)-[2-isobutoxymethyl-7-(3-trifluoromethyl-pyridin-2-yl)-pyrido[2,3-d]pyrimidin-4-yl]-amine] | < 1
CC(C)COCc1nc(Nc2ccc(F)c(Cl)c2)c2ccc(-c3ncccc3C(F)(F)F)nc2n1 [Compound 275, (3-Chloro-4-fluoro-phenyl)-[2-isobutoxymethyl-7-(3-trifluoromethyl-pyridin-2-yl)-pyrido[2,3-d]pyrimidin-4-yl]-amine] | < 1
Cc1ccc(Nc2nc(COCC(C)C)nc3nc(-c4ncccc4C(F)(F)F)ccc23)cc1C(F)(F)F [Compound 276, [2-Isobutoxymethyl-7-(3-trifluoromethyl-pyridin-2-yl)-pyrido[2,3-d]pyrimidin-4-yl]-(4-methyl-3-trifluoromethyl-phenyl)-amine] | < 1
CC(C)COCc1nc(Nc2ccc(CO)cc2)c2ccc(-c3ncccc3Cl)nc2n1 [Compound 277, {4-[7-(3-Chloro-pyridin-2-yl)-2-isobutoxymethyl-pyrido[2,3-d]pyrimidin-4-ylamino]-phenyl}-methanol] | < 1
CCCCOc1ccc(Nc2nc(COCC(C)C)nc3nc(-c4ncccc4Cl)ccc23)cc1 [Compound 278, (4-Butoxy-phenyl)-[7-(3-chloro-pyridin-2-yl)-2-isobutoxymethyl-pyrido[2,3-d]pyrimidin-4-yl]-amine] | < 1
CC(C)OCc1nc(Nc2ccc(S(N)(=O)=O)cc2)c2ccc(-c3ncccc3Cl)nc2n1 [Compound 279, 4-{7-(3-Chloro-pyridin-2-yl)-2-isopropoxymethyl-pyrido[2,3-d]pyrimidin-4-ylamino]-benzenesulfonamide] | < 1
CCCC(=O)c1ccc(Nc2nc(COCC(C)C)nc3nc(-c4ncccc4Cl)ccc23)cc1 [Compound 280, 1-{4-[7-(3-Chloro-pyridin-2-yl)-2-isobutoxymethyl-pyrido[2,3-d]pyrimidin-4-ylamino]-phenyl}-butan-1-one] | < 1
CCOC(=O)Cc1ccc(Nc2nc(COCC(C)C)nc3nc(-c4ncccc4Cl)ccc23)cc1 [Compound 283, {4-[7-(3-Chloro-pyridin-2-yl)-2-isobutoxymethyl-pyrido[2,3-d]pyrimidin-4-ylamino]-phenyl}-acetic acid ethyl ester] | < 1
CC(C)COCc1nc(Nc2ccc(CC(=O)O)cc2)c2ccc(-c3ncccc3Cl)nc2n1 [Compound 284, {4-[7-(3-Chloro-pyridin-2-yl)-2-isobutoxymethyl-pyrido[2,3-d]pyrimidin-4-ylamino]-phenyl}-acetic acid] | < 1
COc1cc(Nc2nc(COCC(C)C)nc3nc(-c4ncccc4Cl)ccc23)ccc1F [Compound 285, [7-(3-Chloro-pyridin-2-yl)-2-isobutoxymethyl-pyrido[2,3-d]pyrimidin-4-yl]-(4-fluoro-3-methoxy-phenyl)-amine] | < 1
OCc1cc2nc(-c3ncccc3C(F)(F)F)ccc2c(Nc2ccc(C(F)(F)F)cc2)n1 [Compound 286, [5-(4-Trifluoromethyl-phenylamino)-2-(3-trifluoromethyl-pyridin-2-yl)-[1,6]naphthyridin-7-yl]-methanol] | < 1

From patent US20040156869A1, “2-substituted quinazolin-4-ylamine analogues” (Neurogen Corporation, priority 2002, published 2004)
